Experimental findings from US4141974A, “Veterinary method employing certain aureolic acid compounds” (Imperial Chemical Industries Limited, priority 1976, dated 1979) are described below.

The test system of one assay is pigs. The experiment in a line: Pig growth trial, 9 weeks (Example 11). The assay is classed as in vivo. From the text:
Seventy-two pigs weighing approximately 20kg. each were allocated into 8 matched treatment groups of 9 pigs, on the basis of sex and live weight. Each treatment group was allocated to one particular diet, and each animal in each group was fed individually on its appropriate diet, accurately weighed according to a feeding scale based on live weight, and adjusted weekly. The daily live weight gain in gammes (DLWG) and food conversion ratio (FCR -- the ratio of kg. feed per kg. of live weight gain) were determined for each group at the end of a 9 week trial period.

Assay [1] has as its system chickens. The experiment in a line: Chicken growth trial, 1-day old chickens, 6 days (Example 4). To be noted: for Mean final weight per bird: * significant at p<0.001. The assay is classed as in vivo. From the text: (§1) Groups of 20 randomised 1-day old chickens were place in small floor pens, bedded with wood shavings and provided with automatic drinking fountains. The birds in 16 randomly chosen such pens were fed for 6 days on a nutritionally balanced control diet containing no known growth promoter, and the birds in other pens (four pens per treatment diet) were fed for the same period on the same basal diet to which the indicated weight of mixed mithramycins obtained as in Example 2 or 3, or a known chicken growth promoter, penicillin or nitrovin as a positive control, was added. At the end of the test period, the mean weight per bird in the control group and each test group was determined and the percentage weight increase for each test group as compared with the control group was calculated.

Assay [2] deals with chickens. The experiment in a line: Chicken growth trial, pen of 20 birds (Example 5). The assay is classed as in vivo. To be noted: for Mean final weight-20 birds: mean total weight of a pen of 20 birds.
From the text: as §1, with “calculated. The following results were obtained:” for “calculated.”
In a further growth trial, the procedure described in Example 4 was repeated. In this case, the weights are expressed as the mean total weight of a pen of 20 birds.

Assay [3] relates to chickens. Briefly: Chicken growth trial, mixed mithramycins from Streptomyces argillaceus (Example 7). The assay is classed as in vivo.
From the text: as §1, with “calculated. The following results were obtained:” for “calculated.”
The procedure described in Example 4 was repeated, using the mixed mithramycins obtained by culturing Streptomyces argillaceus A.T.C.C. 12956 in known manner, and the following results were obtained: […]

In assay [4] the test system is chickens. Briefly: Chicken growth trial, magnesium chelate of Example 2 (Example 8). The assay is classed as in vivo. To be noted: * P<0.001.
Experimental: Groups of 20 randomised 1-day old chickens were place in small floor pens, bedded with wood shavings and provided with automatic drinking fountains. […] At the end of the test period, the mean weight per bird in the control group and each test group was determined and the percentage weight increase for each test group as compared with the control group was calculated.
For assay [5], the system named is chickens. Briefly: Chicken growth trial, magnesium chelate of mithramycin A from S. argillaceus (Example 9). The assay is classed as in vivo. To be noted: * P<0.001.
From the text: The procedure described in Example 4 was repeated, using the magnesium chelate of mithramycin A, obtained in known manner from fermentation of S. argillaceus A.T.C.C.
Assay [6] has as its system chickens. Briefly: Chicken growth trial, chromomycin A3 (Example 12). The assay is classed as in vivo.
From the text: as §1, with “calculated. The following results were obtained:” for “calculated.”
The procedure described in Example 4 was repeated, using chromomycin A3, obtained from Takeda Chemical Industries Ltd., Osaka, Japan, instead of the mixed mithramycins.

The next assay concerns discard cockerels. The experiment in a line: Growth trial in discard cockerels, 4 weeks (Example 10). It counts as in vivo, chicken. To be noted: 10 ppm in basal diet.
From the text: as §1, with “calculated. The following results were obtained:” for “calculated.”
The procedure described in Example 4 was repeated using 4 pens each of 30 discard cockerels for each diet, and allowing the trial to run for 4 weeks.

Setting [7] is: 10 ppm in basal diet, nitrovin * p<0.001, chromomycin A3 *** p<0.05.

On to `COC(=O)N/N=C/c1c[n+]([O-])c2ccccc2[n+]1[O-]` [carbadox], for which the “FCR (food conversion ratio)” value is 2.184 kg. feed per kg. of live weigh in the assay on pigs (high copper diet, 20 ppm, * significant at p<0.05) and 2.292 kg. feed per kg. of live weigh in the assay with pigs (low copper diet, 20 ppm). Moreover, the “DLWG (daily live weight gain)” value turned out to be 672.7 gammes in the assay with pigs (high copper diet, 20 ppm, ** significant at p<0.01) and 630.6 gammes in the assay with pigs (low copper diet, 20 ppm, * significant at p<0.05).
With `CC1(C)S[C@@H]2[C@H](NC(=O)Cc3ccccc3)C(=O)N2[C@H]1C(=O)O` [penicillin], in the assay on chickens [1] (25 ppm in basal diet), the “% effect v. control (weight increase)” value came out at 11.6%. The “Mean final weight per bird” value amounted to 42.57 g in the assay on chickens [1] (25 ppm in basal diet); 47.95 g in the assay with chickens [4] (25 ppm in basal diet); 47.95 g in the assay with chickens [5] (25 ppm in basal diet); 46.73 g in the assay on chickens [6] (25 ppm in basal diet, * significant at p<0.001). Also, the “% effect v. control” value turned out to be 18.25% in the assay with chickens [2] (25 ppm in basal diet); 18.8% in the assay on chickens [3] (25 ppm in basal diet); 16.1% with chickens [4] (25 ppm in basal diet); 16.1% in the assay with chickens [5] (25 ppm in basal diet); 12.7% in the assay with chickens [6] (25 ppm in basal diet). In addition, the “Mean final weight-20 birds” value with chickens [2] (25 ppm in basal diet) amounted to 876 g. The “Mean final weight per birds” value in the assay with chickens [3] (25 ppm in basal diet) is 47.6 g.
For the molecule `CO[C@@H]1[C@H](O)C[C@@H](O[C@@H]2C[C@H](Oc3cc4cc5c(c(O)c4c(O)c3C)C(=O)[C@@H](O[C@H]3C[C@@H](O[C@H]4C[C@@H](O[C@H]6C[C@](C)(O)[C@@H](OC(C)=O)[C@H](C)O6)[C@H](O)[C@@H](C)O4)[C@H](O)[C@@H](C)O3)[C@H]([C@H](OC)C(=O)[C@@H](O)[C@@H](C)O)C5)O[C@H](C)[C@@H]2OC(C)=O)O[C@@H]1C` [chromomycin A3], the “% effect v. control” value in the assay on chickens [6] (5 ppm in basal diet) is 7.3%; in the assay on chickens [6] (10 ppm in basal diet), 5.4%. Moreover, the “Mean final weight per bird” value in the assay on chickens [6] (5 ppm in basal diet, ** significant at p<0.01) is 44.51 g; with chickens [6] (setting [7]), 43.68 g.
As for `N=C(N)NN=C(/C=C/c1ccc([N+](=O)[O-])o1)/C=C/c1ccc([N+](=O)[O-])o1` [nitrovin], the “% effect v. control (weight increase)” value with chickens [1] (10 ppm in basal diet) stood at 12.7%. In addition, the “Mean final weight per bird” value with chickens [1] (10 ppm in basal diet) worked out at 42.99 g; in the assay with chickens [4] (10 ppm in basal diet), 45.67 g; in the assay with chickens [5] (10 ppm in basal diet), 45.67 g; in the assay on discard cockerels (mixed mithramycins * significant at p<0.01, nitrovin unmarked) it was 339 g; with chickens [6] (setting [7]), 45.46 g. Further, the “% effect v. control” value in the assay on chickens [2] (10 ppm in basal diet) stood at 11.6%; in the assay with chickens [3] (10 ppm in basal diet) it was 12.9%; in the assay with chickens [4] (10 ppm in basal diet), 10.6%; in the assay on chickens [5] (10 ppm in basal diet), 10.6%; with chickens [6] (10 ppm in basal diet) it was 9.7%. In addition, in the assay on chickens [2] (10 ppm in basal diet), the “Mean final weight-20 birds” value was 826 g. The “Mean final weight per birds” value in the assay on chickens [3] (10 ppm in basal diet) was found to be 45.2 g. Further, the Food conversion ratio in the assay on discard cockerels (** significant at p<0.001) is 1.800. Also, the “DLWG (daily live weight gain)” value came out at 579.2 gammes with pigs (high copper diet, 10 ppm) and 567.0 gammes in the assay with pigs (low copper diet, 10 ppm). In addition, the “FCR (food conversion ratio)” value was 2.308 kg. feed per kg. of live weigh in the assay on pigs (high copper diet, 10 ppm) and 2.381 kg. feed per kg. of live weigh in the assay with pigs (low copper diet, 10 ppm).
